We go through two compounds from patent publication US20130178448A1, “Treatment of Respiratory Disorders” (priority 2010, published 2013).

Data set [1] concerns Influenza A/PR/8/34 (H1N1 virus). The data set is described as follows: In vivo mouse viral challenge (weight loss and survival of influenza-challenged mice). More on the design: species or system mice (C57BLK/6). The following applies: intraperitoneal, 335.6 μg/animal in 10 μl DMSO. As for the experimental part: Five groups (n=10) of C57BLK/6 female mice (6-7 weeks old), were divided into five experimental groups containing ten animals each. On day 1, animals received an intranasal lethal dose (50 μl total, 25 μl nostril) of Influenza A/PR/8/34 under halothane induced anaesthesia.
The animals were weighed, and monitored for signs of infection daily up to day 6 when all animals were culled. FIGS. 1-4 represent the average weight loss per group and animal survival.
Using standard techniques as described above, mice were infected with a H1N1 virus which was allowed to become established in each of the subjects. Each test mouse was then treated with ibuprofen, either intraperitoneally (in DMSO) or orally (in the lipid/ethanol formulation, BC1054). The weight loss of both treated and untreated mice was then determined.

The conditions of data set [2]: rat, in vivo, 4 h. The method, then:
Vehicle and test compounds (Groups 1-7) were each administered orally (PO) to fasted rats. Each group included five animals. […] The animals were sacrificed four hours after dosing and gastric mucosal lesions were scored. A score of 50 percent or more (≧50%) relative to the aspirin-treated group (150 mg/kg PO, set as 100%) is considered positive in gastric irritation and is shown in parenthesis; and
Seven groups of rats, each group consisting of five animals, were each administered orally (PO) with test formulations and control compounds. […] Group 3 animals were treated with 150 mg/kg aspirin, and Group 4 animals were treated with 100 mg/kg of ibuprofen dissolved in 1% CMC vehicle.
The animals were sacrificed four hours after dosing with the test compound (or control vehicle) and gastric mucosal lesions were then scored according to the following criteria: 0=no lesions, 1=hyperemia, 2=one or two slight lesions, 3=more than two slight lesions or severe lesions, 4=very severe lesions (Herrerias et al., Dig. Dis. Sci., 2003). A score of 50 percent or more (≧50%) relative to the aspirin-treated group (150 mg/kg PO, set as 100%) was considered positive in gastric irritation and is shown in parenthesis in the table of FIG. 5.

Each structure is given as a SMILES string.

For the compound `CC(C)Cc1ccc(C(C)C(=O)O)cc1` (stereo not drawn) [ibuprofen], the “percentage survival rate compared with control mice” value in data set [1] (single dose day 3, especially after day four, FIG. 2) is “lower percentage survival rate than the control mice”. Besides, the “higher reduction in weight loss than in the control mice” value in data set [1] (single dose day 3 post-challenge, vs vehicle control, FIG. 1) is reported as about 30%.
On to `CC(=O)Oc1ccccc1C(=O)O` [Aspirin], for which, in data set [2], the “ulceration score relative to aspirin (150 mg/kg PO, set as 100%)” value came out at 100%.
